Measured values from patent US9006242B2, “Substituted benzene compounds” (Epizyme, Inc., priority 2012, dated 2015).
Where two headings read alike, the source gives them in different places.

Tests used:
CYP1A [1] = experiment: CYP induction in cryopreserved human hepatocytes (mRNA), CYP1A; type: in vitro ADME; details: positive control β-naphthoflavone
CYP2B6 = experiment: CYP induction in cryopreserved human hepatocytes (mRNA), CYP2B6; type: in vitro ADME; details: positive control phenobarbital
CYP2C9 [2] = experiment: CYP induction in cryopreserved human hepatocytes (mRNA), CYP2C9; type: in vitro ADME; details: positive control rifampicin
CYP3A = experiment: CYP induction in cryopreserved human hepatocytes (mRNA), CYP3A; type: in vitro ADME; details: positive control rifampicin
[3] = tested on: cryopreserved human hepatocytes; experiment: Fraction of hepatocytes remaining (DAPI cell count) in CYP induction study; type: cell-based; details: 48 hours
Procedure: After completion of the incubation, the cells were washed with DPBS. After washing with DPBS, the cells were fixed using 3.7% p-formaldehyde in DPBS for one hour. The formaldehyde was removed and 0.6 μmol/L DAPI in DPBS was added. The cells were stained by DAPI for 20 minutes and then washed three times with DPBS. Cells were counted using an ArrayScan II (Cellomics, Pittsburgh, Pa.) with a 5× objective lens. Fraction of hepatocytes remaining was calculated using the number of cells found at a treatment condition divided by cells found with the vehicle control.

CYP3A4/5 [4] = experiment: Time-dependent inactivation (TDI) of CYP3A4/5 in human liver microsomes; type: in vitro ADME; details: for inactivation of CYP3A4/5 (in words): using midazolam as probe
Karpas-422 xenograft = experiment: Efficacy study in Karpas-422 xenograft model; type: in vivo, mice
[5] = type: in vivo; details: oral, BID, up to 28 days, Karpas-422 xenograft mice
CYP2C19 = CYP2C19 (Homo sapiens (Human), UniProt P33261); details: read-out: Reversible inhibition IC50 CYP2C19; human liver microsomes
CYP1A [6] = experiment: in vitro; details: human, pooled human liver microsomes, pH 7.4
CYP2C9 [7] = experiment: in vitro; details: human, pooled human liver microsomes, pH 7.4
CYP3A4/5 [8] = experiment: in vitro; details: human, pooled human liver microsomes
[9] = Metabolic stability in rat liver microsomes; details: pH 7.4
[10] = Metabolic stability in dog liver microsomes; details: pH 7.4
[11] = Metabolic stability in mouse liver microsomes; details: pH 7.4
[12] = Metabolic stability in human liver microsomes; details: for metabolic clearance in human liver microsomes (in words): HLM; for CLint scaled: human, human liver microsomes, pH 7.4
[13] = Metabolic stability in monkey liver microsomes; details: cynomolgus monkey, pH 7.4
CYP2C8 = CYP2C8 (Homo sapiens (Human), UniProt P10632); experiment: Reversible CYP inhibition in pooled human liver microsomes, CYP2C8; details: read-out: Reversible inhibition IC50 CYP2C8
[14] = tested on: human cytochromes P450 (CYP); experiment: Reversible CYP inhibition in human liver microsomes, overall assessment
CYP2D6 = CYP2D6 (Homo sapiens (Human), UniProt P10635); experiment: Reversible CYP inhibition in pooled human liver microsomes, CYP2D6; details: read-out: Reversible inhibition IC50 CYP2D6
[15] = target: wild-type EZH2 (PRC2 complex) (Homo sapiens (Human), UniProt Q15910); experiment: Wild-type PRC2 enzyme assay (WT EZH2)
EZH2 (PRC2 complex) = EZH2 (PRC2 complex) (Homo sapiens (Human), UniProt Q15910); experiment: PRC2 enzyme assay on peptide substrate (EZH2 peptide v2)
[16] = pH 7.4, probe testosterone (250 μmol/L), CYP3A4/5, human liver microsomes, read-out: Time-Dependent Inactivation KI

CYP2C19, sequence (P33261 whole entry): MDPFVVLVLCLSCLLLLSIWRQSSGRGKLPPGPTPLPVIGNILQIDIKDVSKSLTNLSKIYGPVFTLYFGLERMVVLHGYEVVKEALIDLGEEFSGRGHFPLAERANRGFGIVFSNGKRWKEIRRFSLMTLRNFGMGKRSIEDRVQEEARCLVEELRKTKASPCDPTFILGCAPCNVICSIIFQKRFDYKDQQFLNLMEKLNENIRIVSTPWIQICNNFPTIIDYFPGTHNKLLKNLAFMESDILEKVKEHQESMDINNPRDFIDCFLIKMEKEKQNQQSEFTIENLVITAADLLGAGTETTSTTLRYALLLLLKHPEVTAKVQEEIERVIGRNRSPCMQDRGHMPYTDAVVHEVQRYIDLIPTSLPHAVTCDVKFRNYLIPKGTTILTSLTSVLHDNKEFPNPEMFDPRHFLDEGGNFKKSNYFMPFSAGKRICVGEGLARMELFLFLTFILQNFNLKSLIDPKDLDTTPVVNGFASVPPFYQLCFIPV
CYP2C8, sequence (P10632 whole entry): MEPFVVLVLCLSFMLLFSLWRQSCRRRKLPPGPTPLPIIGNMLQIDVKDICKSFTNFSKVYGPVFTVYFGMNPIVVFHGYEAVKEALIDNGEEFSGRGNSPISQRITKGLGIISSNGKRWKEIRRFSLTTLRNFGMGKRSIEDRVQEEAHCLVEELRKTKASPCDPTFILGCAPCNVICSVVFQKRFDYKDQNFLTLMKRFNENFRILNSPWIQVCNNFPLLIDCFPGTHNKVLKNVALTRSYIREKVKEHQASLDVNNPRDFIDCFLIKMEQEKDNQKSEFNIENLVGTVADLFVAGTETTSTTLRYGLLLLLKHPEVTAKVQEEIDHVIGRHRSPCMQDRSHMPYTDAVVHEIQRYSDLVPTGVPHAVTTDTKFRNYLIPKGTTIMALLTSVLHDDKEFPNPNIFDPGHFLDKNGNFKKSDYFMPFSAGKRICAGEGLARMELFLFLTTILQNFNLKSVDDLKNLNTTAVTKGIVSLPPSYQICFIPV
CYP2D6, sequence (P10635 whole entry): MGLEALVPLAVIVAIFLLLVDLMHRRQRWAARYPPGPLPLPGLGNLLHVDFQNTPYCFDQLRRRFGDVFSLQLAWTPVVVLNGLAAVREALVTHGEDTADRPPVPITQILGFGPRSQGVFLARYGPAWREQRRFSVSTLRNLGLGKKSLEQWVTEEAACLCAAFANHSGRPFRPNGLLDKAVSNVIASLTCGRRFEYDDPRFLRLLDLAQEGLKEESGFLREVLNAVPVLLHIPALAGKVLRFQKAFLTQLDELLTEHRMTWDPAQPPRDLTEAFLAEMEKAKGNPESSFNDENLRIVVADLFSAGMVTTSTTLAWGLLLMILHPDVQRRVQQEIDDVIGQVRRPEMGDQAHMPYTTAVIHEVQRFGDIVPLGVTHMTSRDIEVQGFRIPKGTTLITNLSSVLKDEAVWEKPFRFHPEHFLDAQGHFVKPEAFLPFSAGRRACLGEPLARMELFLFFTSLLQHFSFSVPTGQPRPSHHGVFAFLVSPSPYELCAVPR
wild-type EZH2 (PRC2 complex), sequence (Q15910 other isoform, or with tags, fused parts or gaps): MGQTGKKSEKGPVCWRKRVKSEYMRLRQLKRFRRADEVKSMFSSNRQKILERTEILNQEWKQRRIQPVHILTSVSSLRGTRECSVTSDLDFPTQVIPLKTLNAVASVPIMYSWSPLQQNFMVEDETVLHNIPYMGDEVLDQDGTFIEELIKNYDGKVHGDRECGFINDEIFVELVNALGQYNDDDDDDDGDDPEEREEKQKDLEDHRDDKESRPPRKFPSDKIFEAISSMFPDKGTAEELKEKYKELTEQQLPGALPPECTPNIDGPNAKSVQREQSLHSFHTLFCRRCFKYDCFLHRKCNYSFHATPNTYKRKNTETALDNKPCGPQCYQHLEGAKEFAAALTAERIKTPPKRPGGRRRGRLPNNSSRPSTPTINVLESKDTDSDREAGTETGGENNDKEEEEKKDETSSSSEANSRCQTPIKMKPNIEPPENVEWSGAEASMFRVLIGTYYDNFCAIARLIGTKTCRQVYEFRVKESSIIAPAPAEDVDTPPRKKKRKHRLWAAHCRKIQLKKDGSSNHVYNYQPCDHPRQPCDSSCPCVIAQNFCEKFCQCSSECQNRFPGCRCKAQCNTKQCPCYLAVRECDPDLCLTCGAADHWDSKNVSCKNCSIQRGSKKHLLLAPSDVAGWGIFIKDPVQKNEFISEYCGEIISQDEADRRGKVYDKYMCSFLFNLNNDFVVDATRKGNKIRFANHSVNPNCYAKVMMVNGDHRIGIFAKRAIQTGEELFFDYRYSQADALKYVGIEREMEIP
wild-type EZH2 (PRC2 complex), sequence (O75530 whole entry partner): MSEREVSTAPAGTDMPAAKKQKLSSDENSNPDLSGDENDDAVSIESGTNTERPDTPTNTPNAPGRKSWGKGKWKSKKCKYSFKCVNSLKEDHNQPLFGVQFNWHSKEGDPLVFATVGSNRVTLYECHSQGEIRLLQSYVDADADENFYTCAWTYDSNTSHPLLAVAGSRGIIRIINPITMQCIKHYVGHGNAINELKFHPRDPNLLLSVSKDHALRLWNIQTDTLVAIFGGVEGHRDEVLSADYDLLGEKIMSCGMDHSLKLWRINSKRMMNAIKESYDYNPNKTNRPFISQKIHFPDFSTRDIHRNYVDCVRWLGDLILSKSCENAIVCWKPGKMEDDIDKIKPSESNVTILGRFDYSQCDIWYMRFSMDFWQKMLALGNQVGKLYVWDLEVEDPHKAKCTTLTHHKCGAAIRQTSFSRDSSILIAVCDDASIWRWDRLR
wild-type EZH2 (PRC2 complex), sequence (Q15022 whole entry partner): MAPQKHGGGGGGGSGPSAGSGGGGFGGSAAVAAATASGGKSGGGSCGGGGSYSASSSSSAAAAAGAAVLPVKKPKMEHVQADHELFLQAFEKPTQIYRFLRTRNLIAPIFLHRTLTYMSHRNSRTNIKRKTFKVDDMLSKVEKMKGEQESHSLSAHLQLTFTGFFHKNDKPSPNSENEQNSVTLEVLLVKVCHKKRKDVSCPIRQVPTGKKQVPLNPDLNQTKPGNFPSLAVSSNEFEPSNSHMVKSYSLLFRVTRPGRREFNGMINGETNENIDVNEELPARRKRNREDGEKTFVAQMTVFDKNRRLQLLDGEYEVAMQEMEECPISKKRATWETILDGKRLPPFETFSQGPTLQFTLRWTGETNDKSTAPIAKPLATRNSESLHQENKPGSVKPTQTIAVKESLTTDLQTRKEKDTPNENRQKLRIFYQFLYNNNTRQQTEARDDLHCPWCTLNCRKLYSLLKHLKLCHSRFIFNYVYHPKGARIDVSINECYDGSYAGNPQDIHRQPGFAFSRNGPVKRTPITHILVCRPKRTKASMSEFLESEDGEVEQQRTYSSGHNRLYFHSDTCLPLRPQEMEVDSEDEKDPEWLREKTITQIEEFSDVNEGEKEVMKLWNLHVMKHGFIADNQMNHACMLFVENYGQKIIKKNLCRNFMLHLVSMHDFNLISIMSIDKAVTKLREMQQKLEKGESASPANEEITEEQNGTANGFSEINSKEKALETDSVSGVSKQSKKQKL
wild-type EZH2 (PRC2 complex), sequence (Q09028 whole entry partner): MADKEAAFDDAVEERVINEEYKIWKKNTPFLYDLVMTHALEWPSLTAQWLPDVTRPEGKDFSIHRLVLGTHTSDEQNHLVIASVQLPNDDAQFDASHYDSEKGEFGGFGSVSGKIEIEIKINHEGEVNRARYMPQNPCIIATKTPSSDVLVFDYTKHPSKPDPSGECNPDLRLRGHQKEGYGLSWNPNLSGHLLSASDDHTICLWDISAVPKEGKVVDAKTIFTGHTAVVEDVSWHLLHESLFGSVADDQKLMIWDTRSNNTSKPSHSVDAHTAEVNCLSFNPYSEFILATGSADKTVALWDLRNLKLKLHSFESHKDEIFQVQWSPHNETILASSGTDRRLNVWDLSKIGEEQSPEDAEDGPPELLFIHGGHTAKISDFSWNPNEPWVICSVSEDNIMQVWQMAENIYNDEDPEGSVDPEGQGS
EZH2 (PRC2 complex), sequence (Q15910 other isoform, or with tags, fused parts or gaps): as the sequence (Q15910 other isoform, or with tags, fused parts or gaps) above
EZH2 (PRC2 complex), sequence (O75530 whole entry partner): as the sequence (O75530 whole entry partner) above
EZH2 (PRC2 complex), sequence (Q15022 whole entry partner): as the sequence (Q15022 whole entry partner) above
EZH2 (PRC2 complex), sequence (Q09028 whole entry partner): as the sequence (Q09028 whole entry partner) above

Compound | CYP1A % Positive Control (CYP1A [1]; 1 μM) [%] | CYP1A % Positive Control (CYP1A [1]; 10 μM) [%] | CYP2B6 % Positive Control (CYP2B6; 1 μM) [%] | CYP2B6 % Positive Control (CYP2B6; 10 μM) [%] | % Cell Remaining vs. Control ([3]; 1 μM) [%] | % Cell Remaining vs. Control ([3]; 10 μM) [%] | KI (inactivation) (CYP3A4/5 [4]; [16]) [µM] | inactivation of CYP3A4/5 (in words) (CYP3A4/5 [4]) | IC50 (CYP2C19) [µM] | IC50 (CYP1A [6]) [µM] | IC50 (CYP2C9 [7]) [µM] | IC50 (CYP3A4/5 [8]; pH 7.4, probe midazolam) [µM] | IC50 (CYP3A4/5 [8]; pH 7.4, probe testosterone) [µM] | CLint scaled [9] [mL/min/kg] | CLint scaled [10] [mL/min/kg] | CLint scaled [11] [mL/min/kg] | metabolic clearance in human liver microsomes (in words) [12] | CLint scaled [12] [mL/min/kg] | CLint scaled [13] [mL/min/kg] | reversible CYP inhibition (in words) [14] | further results
CCN(c1cc(-c2ccc(OCCOC)cc2)cc(C(=O)NCc2c(C)cc(C)[nH]c2=O)c1C)[C@H]1CC[C@H](N(C)C)CC1 [Compound 1, N-((4,6-dimethyl-2-oxo-1,2-dihydropyridin-3-yl)methyl)-5-(((trans)-4-(dimethylamino)-cyclohexyl)(ethyl)-amino)-4′-(2-methoxyethoxy)-4-methyl-[1,1′-biphenyl]-3-carboxamide] | 2.8 | 3.0 | 18.0 | 26.3 | 107.44 | 99.00 | 6.4 | time-, concentration-, and NADPH-dependent inactivation of CYP3A4/5 | 89.6 | > 100 | > 100 | 40.5 | > 100 | 14.8 | 8.1 | 15.4 | low metabolic clearance | 10.5 | 58.6 | no significant reversible inhibition | CYP2C9 % Positive Control (CYP2C9 [2]; 1 μM): 43.5%; CYP2C9 % Positive Control (CYP2C9 [2]; 10 μM): 52.6%; CYP3A % Positive Control (CYP3A; 1 μM): 13.9%; CYP3A % Positive Control (CYP3A; 10 μM): 13.3%; KI (inactivation) (CYP3A4/5 [4]; human, human liver microsomes, pH 7.4, CYP3A4/5, footnote to ** not given, read-out: Time-Dependent Inactivation KI, second value in brackets marked **): 3.3 µM; tumors large enough for analysis at day 28 (Karpas-422 xenograft; 125 mg/kg BID x28, p.o.): 5 out of 10; tumors large enough for analysis at day 28 (Karpas-422 xenograft; 250 mg/kg BID x28, p.o.): 1 out of 10; tumors large enough for analysis at day 28 (Karpas-422 xenograft; 500 mg/kg BID x28, p.o.): too small for analysis; anti-tumor effect in Karpas-422 xenograft model (in words) (Karpas-422 xenograft; oral, BID, up to 28 days, 62.5-500 mg/kg): tumor stasis and regression; tolerability (in words) [5]: well tolerated; IC50 (CYP2C8): > 100 µM
CCN(c1cc(C#CCN2CCOCC2)cc(C(=O)NCc2c(C)cc(C)[nH]c2=O)c1C)[C@H]1CC[C@H](N(C)CCOC)CC1 [Compound 2, N-((4,6-dimethyl-2-oxo-1,2-dihydropyridin-3-yl)methyl)-3-(ethyl((trans)-4-((2-methoxyethyl)(methyl)amino)cyclohexyl)amino)-2-methyl-5-(3-morpholinoprop-1-yn-1-yl)benzamide] |  |  |  |  | 124.70 | 120.90 | 22.3 | time-, concentration-, and NADPH-dependent inactivation of CYP3A4/5 | > 100 | > 100 | > 100 | > 100 | > 100 | 14.8 | 34.3 | 17.6 | low metabolic clearance | 8.8 | 32.8 | no significant reversible inhibition | IC50 (CYP2C8): > 100 µM; IC50 (CYP2D6): > 100 µM
CCN(c1cc(C#CC2CCN(C)CC2)cc(C(=O)NCc2c(C)cc(C)[nH]c2=O)c1C)C1CCOCC1 [Compound 105, N-((4,6-Dimethyl-2-oxo-1,2-dihydropyridin-3-yl)methyl)-3-(ethyl(tetrahydro-2H-pyran-4-yl)amino)-2-methyl-5-((1-methylpiperidin-4-yl)ethynyl)benzamide] | 3.0 | 4.4 | 25.5 | 52.2 | 103.19 | 97.49 | 10.2 | time-, concentration-, and NADPH-dependent inactivation of CYP3A4/5 | 33.6 | > 100 | 75.7 | 9.67 | > 100 | 47.5 | 64.2 | 54.7 | low metabolic clearance | 42.1 | 74.8 | potentially significant inhibition of CYP2D6 and CYP3A4 (midazolam) | CYP2C9 % Positive Control (CYP2C9 [2]; 1 μM): 50.4%; CYP2C9 % Positive Control (CYP2C9 [2]; 10 μM): 76.3%; CYP3A % Positive Control (CYP3A; 1 μM): 18.1%; CYP3A % Positive Control (CYP3A; 10 μM): 33.8%; IC50 [15]: < 0.01 µM; IC50 (EZH2 (PRC2 complex)): 0.0084 µM; IC50 (CYP2D6): 2.95 µM
